Source: patent US12030897B2, “Pyrrolo[2,1-f][1,2,4]triazine derivatives serving as selective HER2 inhibitors and application thereof” (MEDSHINE DISCOVERY INC., priority 2018, dated 2024)
Values joined by “and” are separate entries in the source; they are usually repeats but may differ in a detail not shown here. Equal entries are not always repeated.

Columns and labels:
HER1 (ErbB1) = HER1 (ErbB1) (Homo sapiens (Human), UniProt P00533); assay: In vitro enzyme activity, HER1 (ErbB1), [γ-33P]ATP filter assay; format: biochemical
HER1 (ErbB1), sequence (P00533 25-1210): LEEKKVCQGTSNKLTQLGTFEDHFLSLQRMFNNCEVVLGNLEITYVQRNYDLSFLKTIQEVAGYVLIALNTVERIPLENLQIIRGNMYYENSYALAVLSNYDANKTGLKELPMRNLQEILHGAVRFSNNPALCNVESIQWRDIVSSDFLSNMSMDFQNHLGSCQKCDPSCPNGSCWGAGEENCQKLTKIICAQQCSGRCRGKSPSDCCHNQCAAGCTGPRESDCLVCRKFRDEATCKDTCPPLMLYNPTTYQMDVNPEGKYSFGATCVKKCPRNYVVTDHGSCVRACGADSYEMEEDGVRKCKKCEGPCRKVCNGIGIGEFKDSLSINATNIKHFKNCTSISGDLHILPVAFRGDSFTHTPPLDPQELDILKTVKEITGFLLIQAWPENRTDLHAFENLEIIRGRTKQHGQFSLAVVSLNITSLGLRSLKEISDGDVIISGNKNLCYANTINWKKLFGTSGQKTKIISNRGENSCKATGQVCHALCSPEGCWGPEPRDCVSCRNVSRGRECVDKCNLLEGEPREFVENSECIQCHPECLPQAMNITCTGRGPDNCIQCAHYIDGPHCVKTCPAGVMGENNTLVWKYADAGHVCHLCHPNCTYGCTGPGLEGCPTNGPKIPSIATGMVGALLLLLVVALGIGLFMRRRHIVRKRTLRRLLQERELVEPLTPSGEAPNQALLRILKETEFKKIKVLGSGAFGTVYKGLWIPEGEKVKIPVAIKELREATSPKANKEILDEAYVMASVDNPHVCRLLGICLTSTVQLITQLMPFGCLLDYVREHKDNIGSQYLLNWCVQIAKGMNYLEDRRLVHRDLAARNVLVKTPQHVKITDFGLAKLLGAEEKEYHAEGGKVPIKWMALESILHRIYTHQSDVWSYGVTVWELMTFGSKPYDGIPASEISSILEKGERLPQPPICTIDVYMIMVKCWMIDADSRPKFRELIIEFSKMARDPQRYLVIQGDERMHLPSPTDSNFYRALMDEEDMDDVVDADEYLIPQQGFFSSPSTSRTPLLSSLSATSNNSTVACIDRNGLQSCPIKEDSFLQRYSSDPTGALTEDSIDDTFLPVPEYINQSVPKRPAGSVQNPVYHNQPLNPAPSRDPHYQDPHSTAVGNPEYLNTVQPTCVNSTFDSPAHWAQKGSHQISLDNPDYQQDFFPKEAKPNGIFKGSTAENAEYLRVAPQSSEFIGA
Protocol: (§1) The object of this test is to detect the in vitro inhibitory activity of the compound against HER1 (ErbB1), HER2 (ErbB2) and HER4 (ErbB4). The enzymes used in this test were human ErbB1, ErbB2 and ErbB4.
(§2) Experimental Steps and Methods (96-Well Plate):
(§3) 5-fold diluted tested compound buffer (5 μL), peptide substrate poly(Glu, Tyr) (4:1) (2.5 μL), ErbB (4-20 ng, 2.5 μL), MnCl2 (50 mM, 1.25 μL), dH2O (3.75 μL) and [γ-^33P]ATP (10 μL) were added, and incubated at 30° C. for 10 min. 3% phosphoric acid was added to terminate the reaction, and 10 μL of the specimen was transferred to Filtermate A. The filter was washed with 75 mM phosphoric acid for three times and methanol once, and transferred to a sealed plastic bag, and a scintillation fluid mixture (4 mL) was added, The intensity of the emitted photons was detected on the scintillation luminescence counter. The photon intensity of the enzyme sample was compared with the photon intensity of the internal control sample, and the level of photon intensity reflected the strength of the tyrosine kinase activity.

HER2 (ErbB2) = HER2 (ErbB2) (Homo sapiens (Human), UniProt P04626); assay: In vitro enzyme activity, HER2 (ErbB2), [γ-33P]ATP filter assay; format: biochemical
HER2 (ErbB2), sequence (P04626 23-1255): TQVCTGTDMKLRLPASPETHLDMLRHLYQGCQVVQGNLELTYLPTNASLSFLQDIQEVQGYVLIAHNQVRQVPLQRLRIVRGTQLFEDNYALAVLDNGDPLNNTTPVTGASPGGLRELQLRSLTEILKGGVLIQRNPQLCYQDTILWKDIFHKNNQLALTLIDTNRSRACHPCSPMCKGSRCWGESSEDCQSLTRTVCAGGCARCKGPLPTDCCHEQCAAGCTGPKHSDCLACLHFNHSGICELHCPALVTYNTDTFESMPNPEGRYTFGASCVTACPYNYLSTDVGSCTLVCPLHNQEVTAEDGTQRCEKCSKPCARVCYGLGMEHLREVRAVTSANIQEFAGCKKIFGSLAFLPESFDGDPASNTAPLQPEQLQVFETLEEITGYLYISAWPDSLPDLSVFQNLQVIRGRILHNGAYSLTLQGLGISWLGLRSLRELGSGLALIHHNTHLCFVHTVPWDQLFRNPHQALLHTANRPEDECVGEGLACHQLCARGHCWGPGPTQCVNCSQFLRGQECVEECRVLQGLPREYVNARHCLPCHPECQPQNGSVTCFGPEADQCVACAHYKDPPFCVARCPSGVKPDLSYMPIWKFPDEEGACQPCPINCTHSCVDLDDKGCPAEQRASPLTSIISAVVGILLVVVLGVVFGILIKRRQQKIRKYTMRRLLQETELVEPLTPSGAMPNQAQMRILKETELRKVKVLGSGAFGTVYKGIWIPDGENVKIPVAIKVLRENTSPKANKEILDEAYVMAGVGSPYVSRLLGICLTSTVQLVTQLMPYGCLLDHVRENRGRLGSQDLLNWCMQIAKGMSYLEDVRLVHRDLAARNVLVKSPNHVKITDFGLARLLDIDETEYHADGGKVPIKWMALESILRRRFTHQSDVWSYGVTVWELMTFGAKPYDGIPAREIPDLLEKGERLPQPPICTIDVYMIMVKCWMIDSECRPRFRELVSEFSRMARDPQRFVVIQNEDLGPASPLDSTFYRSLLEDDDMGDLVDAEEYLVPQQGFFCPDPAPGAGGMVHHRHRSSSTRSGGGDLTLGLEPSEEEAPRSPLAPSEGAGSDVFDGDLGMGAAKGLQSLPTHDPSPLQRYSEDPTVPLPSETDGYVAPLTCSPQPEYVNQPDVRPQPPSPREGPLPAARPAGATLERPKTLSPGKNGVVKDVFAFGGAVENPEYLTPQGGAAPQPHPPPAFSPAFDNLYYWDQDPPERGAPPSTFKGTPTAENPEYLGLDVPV
Protocol: as §1, with “ErbB4. Eurofins Pharma Discovery Service provided the activity detection method, and the results of the inhibitory activity of the tested compound against HER1, HER2 and HER4 were shown in Table 1.” for “ErbB4.”
as §2, §3

HER4 (ErbB4) = HER4 (ErbB4) (Homo sapiens (Human), UniProt Q15303); assay: In vitro enzyme activity, HER4 (ErbB4), [γ-33P]ATP filter assay; format: biochemical
HER4 (ErbB4), sequence (Q15303 26-1308): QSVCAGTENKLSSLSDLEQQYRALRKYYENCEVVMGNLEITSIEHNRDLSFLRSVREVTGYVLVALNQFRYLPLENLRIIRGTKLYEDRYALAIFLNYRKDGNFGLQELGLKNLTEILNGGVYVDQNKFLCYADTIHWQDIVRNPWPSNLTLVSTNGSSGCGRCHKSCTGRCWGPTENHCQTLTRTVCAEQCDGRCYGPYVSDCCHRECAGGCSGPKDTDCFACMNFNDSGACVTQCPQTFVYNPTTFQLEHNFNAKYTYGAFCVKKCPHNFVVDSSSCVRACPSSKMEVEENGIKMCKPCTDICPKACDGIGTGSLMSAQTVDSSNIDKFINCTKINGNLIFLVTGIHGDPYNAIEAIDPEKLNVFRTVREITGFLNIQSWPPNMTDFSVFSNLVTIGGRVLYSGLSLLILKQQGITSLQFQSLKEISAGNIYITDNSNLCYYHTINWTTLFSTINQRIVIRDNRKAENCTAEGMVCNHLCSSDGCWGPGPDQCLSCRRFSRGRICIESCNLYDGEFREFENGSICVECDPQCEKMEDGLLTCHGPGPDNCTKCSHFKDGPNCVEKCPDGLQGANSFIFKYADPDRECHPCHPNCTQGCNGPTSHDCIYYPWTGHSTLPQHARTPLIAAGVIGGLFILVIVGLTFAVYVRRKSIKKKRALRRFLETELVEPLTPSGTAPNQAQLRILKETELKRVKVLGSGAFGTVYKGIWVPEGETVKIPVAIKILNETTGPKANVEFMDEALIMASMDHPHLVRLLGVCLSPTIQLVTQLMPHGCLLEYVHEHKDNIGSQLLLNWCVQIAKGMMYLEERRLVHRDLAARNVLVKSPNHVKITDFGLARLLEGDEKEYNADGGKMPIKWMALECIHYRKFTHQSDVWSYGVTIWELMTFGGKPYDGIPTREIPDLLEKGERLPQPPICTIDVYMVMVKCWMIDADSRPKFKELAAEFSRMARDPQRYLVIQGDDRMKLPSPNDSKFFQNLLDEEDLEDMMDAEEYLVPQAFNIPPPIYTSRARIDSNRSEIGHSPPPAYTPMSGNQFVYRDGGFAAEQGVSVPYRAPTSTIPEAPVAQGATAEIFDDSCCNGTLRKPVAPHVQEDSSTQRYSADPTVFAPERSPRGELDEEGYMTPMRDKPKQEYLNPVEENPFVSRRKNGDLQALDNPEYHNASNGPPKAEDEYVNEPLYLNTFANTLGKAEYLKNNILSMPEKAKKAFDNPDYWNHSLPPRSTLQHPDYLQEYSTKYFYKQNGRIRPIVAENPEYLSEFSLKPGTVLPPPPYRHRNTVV
Protocol: as §1, with “ErbB4. Eurofins Pharma Discovery Service provided the activity detection method, and the results of the inhibitory activity of the tested compound against HER1, HER2 and HER4 were shown in Table 1.” for “ErbB4.”
as §2, §3

NCI-N87 cell = assay: Cell proliferation inhibitory activity, Cell-Titer-Glo, NCI-N87; format: cell-based, human; conditions: 3 days incubation
Description: (§4) Experiment object: to detect the inhibitory activity of the tested compound on cell proliferation.
(§5) Experimental principle: the luciferase in the Cell-Titer-Glo reagent uses luciferin, oxygen and ATP as reaction substrates to produce oxyluciferin and release energy in the form of light. Since the luciferase reaction requires ATP, the total amount of light produced by the reaction is proportional to the total amount of ATP that reflects cell viability.
(§6) Experimental Materials: • cell lines: NCI-N87 cell line (ATCC-CRL-5822); BT-474 cell line (ATCC-HTB-20) • Cell culture medium: RPMI 1640 medium (Invitrogen #22400-105; 10% serum Invitrogen #10090148; L-glutamine 1×, Gibco #25030-081; double antibody Hyclone #SV30010) • CellTiter-Glo® luminescence cell viability detection kit (Promega #G7573) • 384-well cell culture plate (Greiner #781090) • Compound plate (LABCYTE #LP-0200) • CO2 incubator (Thermo #371) • Vi-cell cell counter (Beckman Coulter) • Pipette (Eppendorf) • Pipette (Greiner) • Pipetting gun (Eppendorf) • Multifunctional microplate reader (Envision Reader) • ECHO Liquid-handling workstation (Labcyte-ECHO555)
(§7) The cells were inoculated in a 384-well plate with a density of 1000 cells per well and 25 μL per well. The edge wells were not inoculated with cells, and was supplemented with 25 μL of phosphate buffer.
(§8) The compound was added to the plate with 9 μL per well.
(§9) (2) The compound was diluted with ECHO liquid-handling workstation, and each well of the cell plate was added with 125 nL of compound. Each well of the cell wells of columns 2 and 23 was added with 125 nL of DMSO, and each well of the Media wells of columns 1 and 24 was added with 125 nL of DMSO.
(§10) (3) Each well of the cell plate was supplemented with 25 μL of culture medium, and the final volume in each well of the cell plate was 50 μL. The concentration of the compound was 10 μM, which was subjected to 3 fold dilution to obtain 10 concentrations. Each concentration was duplicated in left and right wells, and the final DMSO concentration was 0.25%.
(§11) 2.3 After adding the compound, it was centrifuged at 1000 rpm for 1 min. The cell plate was placed in a 37° C., 5% CO2 incubator for 3 days.
(§12) The cell plate was taken from the incubator and equilibrated at room temperature for 30 min. 25 μL of Cell-Titer-Glo reagent was added to each well, shaken for 1 min to make it thoroughly mixed, and centrifuged at 1000 rpm for 1 min. After 10 min, the plate was read on PerkinElmer Envision, and the […] reading time was set to 0.2 seconds.

BT-474 cell = assay: Cell proliferation inhibitory activity, Cell-Titer-Glo, BT-474; format: cell-based; conditions: Homo sapiens, BT-474, 72 h; 3 days incubation
Description: as §4, §5, §6, §7, §8, §9, §10, §11, §12

[1] = system: human breast cancer BT-474 cell subcutaneous xenograft tumor; assay: In vivo efficacy, BT-474 subcutaneous xenograft tumor model; set-up: species or system BALB/c nude mice; conditions: BT-474 xenograft, 100 mg/kg
Protocol: Experiment object: to study the in vivo efficacy of the tested compound in human breast cancer BT-474 cell BALB/c nude mouse subcutaneous xenograft tumor model.
Experimental animals: female BALB/c nude mice, 6 to 8 weeks old, weight: 18 to 22 grams; Supplier Beijing Weitonglihua Laboratory Animal Technology Co., Ltd.
Human breast cancer BT474 cells were cultured in a monolayer in vitro. The culture conditions were: ATCC Hybri-Care Medium with 1.5 g/L sodium bicarbonate, 10% fetal bovine serum, 100 U/mL penicillin and 100 μg/mL streptomycin, and 37° C., 5% CO2 incubator. Conventional digestion treatment with pancreatin-EDTA for passage was carried out twice a week. When the cell saturation was 80% to 90%, and the number reached the requirement, the cells were collected, counted and inoculated.
0.2 mL (1×10^7 cells) of BT474 cells (with matrigel in a volume ratio of 1:1) were subcutaneously inoculated on the right back of each mouse. The grouping and administration were started when the average tumor volume reached about 168 mm^3. (Estrogen tablets were inoculated three days before cell inoculation).
7.3 the Preparation of the Tested Samples, Tumor Measurement, Experimental Index and Statistical Analysis were the Same as in Experimental Example 6.

IC50 (HER1 (ErbB1)) [nM] | IC50 (HER2 (ErbB2)) [nM] | IC50 (HER4 (ErbB4)) [nM] | IC50 (BT-474 cell) [nM] | Structure (SMILES) | IC50 (NCI-N87 cell; Homo sapiens, NCI-N87, 72 h) [nM] | IC50 (NCI-N87 cell) [nM] | RTV ([1]; day 20) | T/C ([1]; day 20) [%] | TGI ([1]; day 20) [%] | Tumor volume ([1]; day 20 (head: Day 21), mean ± SEM)
> 1000 | 24 | > 1000 | – | Cc1cc(Nc2ncnn3ccc(CN4CCNCC4)c23)ccc1Oc1ccn2ncnc2c1 [Example 1] | – | – | – | – | – | –
> 1000 | 16 | > 1000 | 97 | Cc1cc(Nc2ncnn3ccc(CN4CCCNCC4)c23)ccc1Oc1ccn2ncnc2c1 [Example 5] | 59 | – | – | – | – | –
– | 10 | > 1000 | – | Cc1cc(Nc2ncnn3ccc(CN4C[C@H]5CC[C@@H](C4)[C@H]5N)c23)ccc1Oc1ccn2ncnc2c1 [Example 7] | 27 | – | – | – | – | –
325 | 11 | 201 | – | Cc1cc(Nc2ncnn3ccc(CN4CCC(C)(N)CC4)c23)ccc1Oc1ccn2ncnc2c1 [Example 9] | 8 | – | – | – | – | –
– | – | – | – | Cc1cc(Nc2ncnn3ccc(CN4CC(O)C4)c23)ccc1Oc1ccn2ncnc2c1 [Example 12] | 52 | – | – | – | – | –
861 | 7 | 535 | – | Cc1cc(Nc2ncnn3ccc(CN4CCC(O)CC4)c23)ccc1Oc1ccn2ncnc2c1 [Example 16] | 38 | – | – | – | – | –
509 | 4 | > 1000 | – | COCCNC1CCN(Cc2ccn3ncnc(Nc4ccc(Oc5ccn6ncnc6c5)c(C)c4)c23)CC1 [Example 18] | 65 | – | – | – | – | –
– | – | – | – | CCNC1CCN(Cc2ccn3ncnc(Nc4ccc(Oc5ccn6ncnc6c5)c(C)c4)c23)CC1 [Example 19] | 23 | – | – | – | – | –
167 | 7 | 230 | 88 | COCC1(N)CCN(Cc2ccn3ncnc(Nc4ccc(Oc5ccn6ncnc6c5)c(C)c4)c23)CC1 [Example 20] | 9 | – | – | – | – | –
– | – | – | – | Cc1cc(Nc2ncnn3ccc(CC4CCC(N)CC4)c23)ccc1Oc1ccn2ncnc2c1 (stereo not shown) [Example 29] | 27 | – | – | – | – | –
663 | 14 | > 1000 | – | NC1CCN(Cc2ccn3ncnc(Nc4ccc(Oc5ccn6ncnc6c5)c(C(F)(F)F)c4)c23)CC1 [Example 30] | – | – | – | – | – | –
667 | 3 | > 1000 | – | Cc1c(Oc2ccn3ncnc3c2)ccc(Nc2ncnn3ccc(CN4CCC(N)CC4)c23)c1F [Example 31] | 31 | – | – | – | – | –
284 | 2 | 356 | 87 | NC1CCN(Cc2ccn3ncnc(Nc4ccc(Oc5ccn6ncnc6c5)c(Cl)c4F)c23)CC1 [Example 32] | 11 | – | 0.61 ± 0.06 | 7.84 | 106.44 | 101 mm^3 and 101 ± 12 mm^3

Structure (SMILES) | IC50 (HER1 (ErbB1)) [nM] | IC50 (HER2 (ErbB2)) [nM] | IC50 (HER4 (ErbB4)) [nM] | IC50 (BT-474 cell) [nM] | IC50 (NCI-N87 cell; Homo sapiens, NCI-N87, 72 h) [nM] | IC50 (NCI-N87 cell) [nM] | RTV ([1]; day 20) | T/C ([1]; day 20) [%] | TGI ([1]; day 20) [%] | Tumor volume ([1]; day 20 (head: Day 21), mean ± SEM)
Cc1cc(Nc2ncnn3ccc(CN4[C@@H]5CC[C@H]4C[C@H](O)C5)c23)ccc1Oc1ccn2ncnc2c1 [Example 6] | 743 | 18 | 150 | – | 4 | – | – | – | – | –
Cc1cc(Nc2ncnn3ccc(CN4[C@@H]5CC[C@H]4C[C@H](N)C5)c23)ccc1Oc1ccn2ncnc2c1 [Example 8] | 385 | 10 | 184 | – | 20 | – | – | – | – | –
Cc1cc(Nc2ncnn3ccc(CN4CC[C@H](N)[C@@H](F)C4)c23)ccc1Oc1ccn2ncnc2c1 [Example 21] | 909 | 4 | > 1000 | – | – | 19 | – | – | – | –
Cc1cc(Nc2ncnn3ccc(CN4CC[C@H](N)[C@@H](F)C4)c23)ccc1Oc1ccn2ncnc2c1 [Example 23] | 61 | 2 | 41 | – | – | 3 | – | – | – | –
CO[C@H]1CN(Cc2ccn3ncnc(Nc4ccc(Oc5ccn6ncnc6c5)c(C)c4)c23)CC[C@@H]1N [Example 25] | 207 | 2 | 369 | – | – | 14 | – | – | – | –
